Test results taken from PMC6910946, “Multiple roles of Bet v 1 ligands in allergen stabilization and modulation of endosomal protease activity” (Allergy, 2019).
Read-outs that look alike come from different tables or passages of the source.

What was measured:
[1] = tested on: CD11c+ murine bone marrow–derived dendritic cells (BMDCs); assay: In vitro antigen uptake of labeled Bet v 1 by BMDCs; format: cell-based, mouse; details: Bet v 1 with or without ligand; 1, 6, 24 h; FACS
Protocol: (§1) The ability of ligand‐loaded Bet_v_1 to induce IgE‐antigen cross‐linking and basophil degranulation was assessed by mediator‐release assays using rat basophil (RBL‐2H3) cells, transfected with the human high‐affinity IgE receptor (FcεRI), as previously described.2, 24 In vitro uptake of labeled Bet_v_1 was performed using CD11c^+ murine bone marrow–derived dendritic cells (BMDCs). The maturation of human monocyte‐derived dendritic cells (moDCs) was analyzed as previously described.2 T‐cell proliferation assays using CD4^+ T‐cell hybridomas were performed as previously described.17 A detailed description of the in vitro assays is available (Appendix [Link], [Link]).
BMDCs from C57BL/6 mouse bone marrow were isolated as described previously.^5 cultured in BMDC medium (RPMI 1640, 5% fetal calf serum, 2 mM L-glutamine, 1% penicillin-streptomycin, 20% granulocyte-macrophage colony-stimulating factor supernatant and 200 µM β-mercaptoethanol) (BMDC medium) for 10 days, and stored frozen in liquid nitrogen. BMDCs were treated over a certain period of time (24, 6 or 1 hours) with 0.5 µg of Bet v 1 per 2x10^5 cells. Bet v 1 was labeled with pHrodo™ Red succinimidyl ester (Thermo Fisher Scientific, Waltham, MA, USA) and pre-incubated with one of the ligands (DOC, Q3OS or PPE1). CD11c^+ cells were analyzed via flow cytometry (allophycocyanin-conjugated anti-mouse CD11c antibody, clone N418; eBioscience, Inc., San Diego, CA, USA) on a FACSCanto II instrument (BD Biosciences, San Jose, CA, USA). For the live/dead staining a fixable viability stain 450 (BD Biosciences) was used. Granulocytes and monocytes were excluded via the V450 Rat anti-Mouse LY-6G and LY-6C (BD Biosciences) antibody. Data were recorded and analyzed using the BD FACSDiva software (BD Biosciences). Statistical analysis was performed using ANOVA with a Bonferroni post-test to compare all groups. The data represent the mean of duplicate experiments and are derived from at least 2 independent experiments.

[2] = tested on: rat basophil (RBL‐2H3) cells transfected with the human high‐affinity IgE receptor (FcεRI); assay: Mediator release assay (IgE cross-linking, basophil degranulation); format: cell-based; details: sera of six birch pollen allergic subjects
Protocol: as §1
A mediator-release assay was performed to assess the capacity of ligand-loaded Bet v 1 to induce IgE-antigen-crosslinking and basophil degranulation. In this respect, rat basophil (RBL-2H3) cells, transfected with the human high-affinity IgE receptor (FcεRI) were passively sensitized with sera of six subjects allergic to birch pollen (1:10), and used as previously described.^4 For cell-stimulation, Bet v 1 was used at 10-fold dilutions from 1 µg/ml to 0.01 pg/ml. Toxicity of ligands on RBL-2H3 was determined by cell viability assay using MTT (3-(4,5-Dimethylthiazol-2-yl)-2,5-Diphenyltetrazolium Bromide) from Sigma-Aldrich, Inc. (St. Louis, MO, USA). Results were expressed as percentage of total enzyme release of cells lysed with Triton X-100, and the half maximal release (in ng) was determined. Statistics were calculated with a repeated ANOVA followed by a Dunnett post-hoc test of logarithmically transformed half maximal release values (not significant, ns P > 0.05, *P < 0.05, **P < 0.01, and ***P < 0.001).

Bet_v_1 = target: T1, Bet_v_1 (Betula pendula, UniProt P15494); assay: Surface acoustic wave (SAW) interaction studies, determination of Kd; format: binding
T1 construct: made in house
T1 sequence (P15494 1-160): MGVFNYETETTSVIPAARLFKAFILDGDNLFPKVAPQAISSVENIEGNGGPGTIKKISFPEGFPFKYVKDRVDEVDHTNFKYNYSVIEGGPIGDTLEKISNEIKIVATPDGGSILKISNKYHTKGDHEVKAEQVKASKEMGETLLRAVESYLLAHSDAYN
Source text: Surface acoustic wave (SAW) technology and NMR spectroscopy were used to observe the interaction of Bet_v_1 with the selected compounds, including determination of the dissociation constant (K d). The influence of ligand binding on the secondary structure elements and the thermal stability of Bet_v_1 was monitored using circular dichroism (CD, JASCO J‐815 spectropolarimeter, Jasco) and Fourier transform infrared (FTIR) spectroscopy (Tensor II FTIR system, Bruker Optics Inc). A detailed description of these methods is available (Appendix [Link], [Link]).
To assess the interactions between Bet_v_1 and Q3OS, DOC, PPE1, LTA, or LPS, we determined the dissociation constants (K d) using SAW binding assays (Table 1, Figure S1), a more quantitative approach than previously described qualitative assays.11, 25 In addition, the LPS‐substructure Kdo2‐Lipid A (Kdo2) was used for binding studies, due to its more homogenous structure but similar immune stimulatory activity when compared to native LPS.
For the determination of the affinity constant Kd, we used surface acoustic wave (SAW) technology. The interaction of the six ligands with Bet v 1 was investigated using a sam® 5BLUE biosensor instrument (Nanotemper, Munich, Germany). Bet v 1 was immobilized in PBS on the surface of a SAW CM-Dextran 3D sensor chip. […] For calculating the affinity constant Kd, different concentrations of the ligands dissolved in a 5 mM sodium phosphate buffer, pH 7.4, were applied to the Bet v 1-coupled chip. Depending on the ligand, the concentration range of the injected ligand varied between 5 µM and 500 µM. For the removal of residual ligand between the sample injections, the chip was washed with regeneration buffer (10 mM citric acid buffer, pH 2.8). The recorded SAW phase changes were analyzed using the software TraceDrawer 1.7 (Ridgeview Instruments, Uppsala, Sweden). The affinity constant Kd was calculated by kinetic evaluation and affinity/EC50 estimation. For kinetic evaluation, an OneToOne curve fit was chosen to match the raw data. Experiments were performed with two coated chips in duplicate, and the coupling efficiency was evaluated using a mouse monoclonal anti-Bet v 1 antibody.

[3] = Bet v 1 immobilized on chip, ligands in 5 mM sodium phosphate buffer pH 7.4, read-out: Binding affinity K d (SAW)

## C[C@H](CCC(=O)O)[C@H]1CC[C@H]2[C@@H]3CC[C@@H]4C[C@H](O)CC[C@]4(C)[C@H]3C[C@H](O)[C@]12C [DOC, sodium deoxycholate, reference compound]
[1]
  antigen uptake of pHrodo Red‐labeled Bet v 1: None of the above described readouts was influenced
[2]
  IgE cross‐linking by Bet v 1‐complexes (RBL assay): None of the above described readouts was influenced
Bet_v_1; Binding affinity K d (SAW)
  Kd: 58800 nM
Bet_v_1; Kd (SAW, Fig. S1)
  Kd: 58800 nM

## CCC1C(=O)CC(O)C1/C=C/C(O)CCCCCCCC(=O)O (centres unmarked) [PPE1, E1 phytoprostanes]
[1]
  antigen uptake of pHrodo Red‐labeled Bet v 1: None of the above described readouts was influenced
[2]
  IgE cross‐linking by Bet v 1‐complexes (RBL assay): None of the above described readouts was influenced
Bet_v_1; [3]
  Kd: 500 nM

## O=c1c(O[C@@H]2O[C@H](CO)[C@@H](O)[C@H](O)[C@H]2O[C@@H]2O[C@H](CO)[C@@H](O)[C@H](O)[C@H]2O)c(-c2ccc(O)c(O)c2)oc2cc(O)cc(O)c12 [Q3OS, quercetin 3‐O‐sophoroside]
[1]
  antigen uptake of pHrodo Red‐labeled Bet v 1: None of the above described readouts was influenced
[2]
  IgE cross‐linking by Bet v 1‐complexes (RBL assay): None of the above described readouts was influenced
Bet_v_1; [3]
  Kd: 1500 nM
Bet_v_1; Fig. S1 sensorgrams, read-out: Kd (SAW, Fig. S1)
  Kd: 1470 nM
